Data on one molecule can be found in US9011863B2, “Combinations of kinase inhibitors for the treatment of cancer” (Exelixis, Inc., priority 2010, dated 2015).

pIC50: −log10 of the molar value.

Test [1] deals with human breast cancer cell lines. In words: cell proliferation (cell counting) and crystal violet assays. It is filed as cell-based. As for the experimental part:
Cells were seeded in 12-well plates at a density of 2.5-3.5×10^4 cells/well in medium containing 2.5% FBS±inhibitors. Media and inhibitors were replaced every 3 days. On the days indicated in figures, cells were trypsinized and counted in a Beckman Coulter counter. For crystal violet assay, 5×10^4 cells/well were seeded in 6-well plates and grown in absence or presence of compound A for 6 days, fixed in methanol, stained with crystal violet, and photographed using an Olympus DP10 camera.
A panel of breast cancer cell lines with dysregulated PI3K activity was treated with increasing doses of compound A under two- and three-dimensional (2D and 3D) growth conditions. All experiments were conducted in 2.5% FBS-containing media, unless otherwise stated. […] This was further confirmed by immunoblot analysis of biomarkers of cell death and G1-S cell cycle transition in lysates from cells treated for 24 hours with compound A as shown in FIG. 10B.

For test [2], the system named is p85-associated pTyr proteins in BT474 cells. The test is described as follows: p85 immunoprecipitation with pTyr / HER3 immunoblot. It is filed as cell-based, human. The following applies: BT474, 0-20 μM, 24 hours. The procedure:
FIG. 13C depicts a photomicrrograph of immunoblots of cell lysates from BT474 cells which were treated with 0-20 μM compound A for 24 hours. Cells were then lysed, and 0.5 mg of lysate subjected to immunoprecipitation (IP) with a p85 antibody followed by p85 and pTyr.
FIG. 13D depicts a photomicrrograph of immunoblots of cell lysates from BT474 cells which were treated with 0-20 μM compound A for 24 hours. Cells were then lysed, and 0.5 mg of lysate subjected to immunoprecipitation (IP) with a p85 antibody followed by p85 and HER3.
Immunoprecipitation, immunoblotting, and RTK assays were performed according to published methods. […] Immunoreactive signals were detected by enhanced chemilluminsecence (Pierce, Rockford, Ill., USA). […]
In HER2 overexpressing cells, although not bound by any particular theory, it is believed that the main mechanism of activation of PI3K is the coupling of pHER3 to an SH2 domain in the N-terminus of p85, the regulatory subunit of PI3K. […] Consistent with previous studies, the p85-associated approximately 200-kDa band was also detected with HER3 and pHER3^Y1197 antibodies as shown in FIGS. 13D and 13F. […]

Test [3] concerns phospho-Akt, HER3, RTKs and intracellular kinases in HCC1937 cells. The test is described as follows: phospho-RTK / phospho-kinase arrays and Western blotting in HCC1937 cells. It is filed as cell-based, human. The procedure: FIG. 1A. siRNA screen to identify kinases that potentially compensate for PI3K inhibition. HCC1937 breast cancer cells were treated with the indicated amounts of compound A for 6, 24, or 72 hours in medium containing 2.5% FBS. Cell lysates analyzed by immunoblotting with the indicated antibodies.
FIGS. 3A and 3B. PI3K inhibition induces phosphorylation of RTKs and intracellular kinases. HCC1937 cells were treated with 10 μM compound A in medium containing 2.5% FBS for 0, 8, 24, or 48 hours. Media and drugs were replenished every 24 hours. Lysates were used to probe phospho-RTK arrays (FIG. 3A) or phospho-kinase arrays (FIG. 3B) (R&D systems). Corner spots are positive controls. Candidate kinases from the siRNA screen that are also phosphorylated upon treatment with compound A are shown in red.
FIGS. 4A and 4B. HCC1937 cells were treated with 10 μM compound A in medium containing 2.5% FBS for 0, 8, 24, or 48 hours. Media and drugs were replenished every 24 hours. Lysates were used to probe phospho-RTK arrays (A) or phospho-kinase arrays (B) (R&D systems). Corner spots are positive controls. Candidate kinases from the siRNA screen that are also phosphorylated upon treatment with compound A are shown in red.
The purpose of the present study is to identify kinases and kinase-regulated signaling pathways that compensate for PI3K inhibition in human breast cancer cells. To this end, siRNA screen is employed targeting 779 human kinases in order to determine if downregulation of specific kinases increases the sensitivity of HCC1937 human breast cancer cells to the PI3K inhibitor compound A, which a compound of formula I and of Table 1. […] Following reverse transfection with the siRNA library, cells are treated with either DMSO or 10 μM compound A for 72 hours in a medium containing 2.5% fetal bovine serum (FIGS. 1A and 2) and the alamar blue assay is used to measure cell viability FIG. 1B. […] HCC1937 cells were treated with 10 μM compound A in medium containing 2.5% FBS for 0, 2, 8, or 24 hours. RNA was isolated with Trizol and purified using the RNeasy column (Qiagen). Gene expression from three independent experiments was measured using the Gene titan 3′ microarray. *, p<0.05; **, p<0.01 versus 0 hours, as shown in FIG. 5.
Background: A western blot detects proteins with antibodies after separation by electrophoresis.

As to `COc1ccc(Cl)c(Nc2nc3ccccc3nc2NS(=O)(=O)c2cccc(NC(=O)C(C)(C)N)c2)c1` [Compound A], the “cell number below baseline” value in test [1] (20 μM) is reported as “induced cell death”. Moreover, in test [1] (Homo sapiens, panel of breast cancer cell lines, 2.5% FBS, read-out: IC50 of cell growth (2D)), the negative logarithm of the IC50 (pIC50) (as a rule, the negative decadic logarithm of the IC50, by convention in mol/L) is about 5.22. Further, the 2D growth result in test [1] (panel of breast cancer cell lines, increasing doses) is “inhibited the 2D growth of all cell lines in a dose-dependent manner”. For the same molecule, in test [2], the “p85-associated pTyr band” value is given as “dose-dependent increase of approximately 200-kDa main pTyr band”. For the same molecule, the “phospho-Akt and HER3 by Western blotting” value in test [3] (HCC1937) was “decreases phospho-Akt at S473 and T308 and increases phospho- and total HER3”. The “phosphorylation of MAP kinases” value in test [3] (HCC1937) is “increases phosphorylation of the MAP kinases ERK, JNK, and p38 MAPK”. The phospho-Akt result in test [3] (HCC1937, 10 μM, 48 hours) is “phosphorylation at S473 is partially restored”; in test [3] (HCC1937, 10 μM, eight and 24 hour treatments) it was “suppressed phospho-Akt at both S473 and T308”. The “expression and/or phosphorylation of RTKs and intracellular kinases” value in test [3] (HCC1937, 10 μM, within 8-48 hours) was “increased expression and/or phosphorylation of many RTKs and intracellular kinases”.
